Assay results: patent publication EP4603105A1, “PHARMACEUTICAL COMPOSITION CONTAINING CYCLIC COMPOUND HAVING SELECTIVE KRAS INHIBITORY EFFECT AGAINST HRAS AND NRAS” (CHUGAI SEIYAKU KABUSHIKI KAISHA, priority 2022, dated 2024)
Where a SMILES comes first, the peptide text is derived from it. Bridges are numbered along the chain shown (N, C = ends). [ ]: non-standard residue; d: D form. The star is where a group is joined. hPhe(3-Cl-4-CF3) = N[C@@H](CCc1ccc(C(F)(F)F)c(Cl)c1)C(=O)O; NPrPhe(4-CF3) = CCCN[C@@H](Cc1ccc(C(F)(F)F)cc1)C(=O)O; NPrPhe(4-Me) = CCCN[C@@H](Cc1ccc(C)cc1)C(=O)O; NMeGly(cPent) = CN[C@H](C(=O)O)C1CCCC1; Pro(4,4-F2) = O=C(O)[C@@H]1CC(F)(F)CN1; NMeGly(cBu) = CN[C@H](C(=O)O)C1CCC1; Hyp = O=C(O)[C@@H]1C[C@@H](O)CN1; NMeD = CN[C@@H](CC(=O)O)C(=O)O; NMeL = CN[C@@H](CC(C)C)C(=O)O; Morpholide = C1CN(*)CCO1; NMeA = CN[C@@H](C)C(=O)O; Ac5c = NC1(C(=O)O)CCCC1; Aze = O=C(O)[C@@H]1CCN1; Ac4c = NC1(C(=O)O)CCC1; NEtG = CCNCC(=O)O; Sar = CNCC(=O)O

Columns and labels:
[1] = target: GDP-bound NRAS wild-type protein (Homo sapiens, UniProt P01111); experiment: Binding to NRAS by surface plasmon resonance (SPR), KD and KD ratio to KRAS
Procedure, shortened: (§1)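 Captured GDP-RAS (~100–300 RU) was exposed to increasing compound concentrations, 75 s per step, in running buffer with 10 µM GDP, 10 mM MgCl2 and 4% DMSO at pH 7.4.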

HRAS wild-type protein = HRAS wild-type protein (Homo sapiens, UniProt P01112); experiment: Binding to HRAS by surface plasmon resonance (SPR), KD and KD ratio to KRAS
Procedure, shortened: as §1

[2] = system: human lung cancer strain NCI-H441; assay type: cell-based
Procedure, shortened: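 Step one: dispense the test compound in serial DMSO dilutions. Step three: add the reagent and measure […].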

[3] = ratio of KD for GDP-bound NRAS wild-type protein to KD for KRAS
[4] = ratio of KD for HRAS wild-type protein to KD for KRAS

Sequence of GDP-bound NRAS wild-type protein (P01111 whole entry): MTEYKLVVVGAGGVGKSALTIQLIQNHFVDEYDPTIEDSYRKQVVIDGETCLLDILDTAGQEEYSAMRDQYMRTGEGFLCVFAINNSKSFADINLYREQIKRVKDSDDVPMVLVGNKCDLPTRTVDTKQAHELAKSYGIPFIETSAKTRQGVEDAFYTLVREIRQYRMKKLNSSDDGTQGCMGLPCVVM
Sequence of HRAS wild-type protein (P01112 whole entry): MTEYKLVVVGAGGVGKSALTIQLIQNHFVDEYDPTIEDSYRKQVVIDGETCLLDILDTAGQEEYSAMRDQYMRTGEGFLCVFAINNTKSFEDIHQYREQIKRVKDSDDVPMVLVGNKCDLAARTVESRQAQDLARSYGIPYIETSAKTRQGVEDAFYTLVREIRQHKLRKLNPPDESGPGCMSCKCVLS

Structure (SMILES) | NRAS /KRAS ([1]; ratio of the KD value with respect to GDP-bound NRAS wild-type protein to the KD value with respect to KRAS) | HRAS /KRAS (HRAS wild-type protein; ratio of the KD value with respect to HRAS wild-type protein to the KD value with respect to KRAS) | IC50 [2] [nM] | NRAS /KRAS [1, 3] | HRAS /KRAS (HRAS wild-type protein; [4])
CCCN1C(=O)CN(C)C(=O)[C@@H]2CCN2C(=O)[C@H]([C@@H](C)CC)NC(=O)[C@H](CC(C)C)N(C)C(=O)C[C@@H](C(=O)N2CCOCC2)N(C)C(=O)[C@H](C2CCCC2)N(C)C(=O)C2(CCC2)NC(=O)[C@@H]2C[C@@H](OCC)CN2C(=O)[C@H](CCc2ccc(C(F)(F)F)c(Cl)c2)NC(=O)CN(C)C(=O)[C@@H]1Cc1ccc(C(F)(F)F)cc1 [PP0405] ([NMeL]I[Aze][Sar][NPrPhe(4-CF3)][Sar][hPhe(3-Cl-4-CF3)][Hyp](Et)[Ac4c][NMeGly(cPent)][NMeD]-Morpholide; lactam N-11) | B (a compound having 3 or more and less than 10 is denoted as B) | C (A compound having a KD ratio of 0.1 or more and less than 3 is denoted as C) | 14.3 | – | –
CCC[C@H]1C(=O)N[C@@H]([C@@H](C)CC)C(=O)N(C)CC(=O)N(C)[C@H]2C/C=C\CCN(C2=O)[C@@H](Cc2ccc(C)cc2)C(=O)N(C)CC(=O)N[C@@H](CCc2ccc(C(F)(F)F)c(OC)c2)C(=O)N2C[C@H](OCC)C[C@H]2C(=O)N(C)C2(CCC2)C(=O)N(C)[C@@H](C2CCCC2)C(=O)N(C)[C@H](C(=O)N2CCCCC2)CC(=O)N1C [PP3104] | – | – | 3.8 | A (a compound having 10 or more and less than 20 is denoted as A) | A (a compound having 10 or more and less than 20 is denoted as A)
CCCN1C(=O)[C@@H]2CCN2C(=O)[C@H](C)N(C)C(=O)[C@H]([C@@H](C)CC)NC(=O)[C@H](CC(C)C)N(C)C(=O)C[C@@H](C(=O)N2CCOCC2)N(C)C(=O)[C@H](C2CCCC2)N(C)C(=O)C2(CCC2)NC(=O)[C@@H]2CCCN2C(=O)[C@H](CCc2ccc(C(F)(F)F)c(Cl)c2)NC(=O)CN(C)C(=O)[C@@H]1Cc1ccc(C(F)(F)F)cc1 [PP0198] ([NMeL]I[NMeA][Aze][NPrPhe(4-CF3)][Sar][hPhe(3-Cl-4-CF3)]P[Ac4c][NMeGly(cPent)][NMeD]-Morpholide; lactam N-11) | – | – | 5.7 | C (A compound having a KD ratio of 0.1 or more and less than 3 is denoted as C) | B (a compound having 3 or more and less than 10 is denoted as B)
CCCN1C(=O)[C@@H]2CCN2C(=O)[C@H](C)N(C)C(=O)[C@H]([C@@H](C)CC)NC(=O)[C@H](CC(C)C)N(C)C(=O)C[C@@H](C(=O)N2CCOCC2)N(C)C(=O)[C@H](C2CCCC2)N(C)C(=O)C2(CCCC2)NC(=O)[C@@H]2CCCN2C(=O)[C@H](CCc2ccc(C(F)(F)F)c(Cl)c2)NC(=O)CN(CC)C(=O)[C@@H]1Cc1ccc(C)cc1 [PP0058] ([NMeL]I[NMeA][Aze][NPrPhe(4-Me)][NEtG][hPhe(3-Cl-4-CF3)]P[Ac5c][NMeGly(cPent)][NMeD]-Morpholide; lactam N-11) | – | – | 25.8 | C (A compound having a KD ratio of 0.1 or more and less than 3 is denoted as C) | C (A compound having a KD ratio of 0.1 or more and less than 3 is denoted as C)
CCCN1C(=O)[C@@H]2CCN2C(=O)[C@H](C)N(C)C(=O)[C@H]([C@@H](C)CC)NC(=O)[C@H](C2CCC2)N(C)C(=O)C[C@@H](C(=O)N2CCOCC2)N(C)C(=O)[C@H](C2CCCC2)N(C)C(=O)C2(CCCC2)NC(=O)[C@@H]2CC(F)(F)CN2C(=O)[C@H](CCc2ccc(C(F)(F)F)c(Cl)c2)NC(=O)CN(C)C(=O)[C@@H]1Cc1ccc(C(F)(F)F)cc1 [PP0204] ([NMeGly(cBu)]I[NMeA][Aze][NPrPhe(4-CF3)][Sar][hPhe(3-Cl-4-CF3)][Pro(4,4-F2)][Ac5c][NMeGly(cPent)][NMeD]-Morpholide; lactam N-11) | – | – | 5.4 | C (A compound having a KD ratio of 0.1 or more and less than 3 is denoted as C) | C (A compound having a KD ratio of 0.1 or more and less than 3 is denoted as C)
